# Laboratory results from patent US6063797A, “γ-RAR antagonist ligand or α-RAR agonist ligand as an apoptosis inhibitor” (priority 1995, dated 2000).
# Like-named read-outs stand apart in the source and are kept apart here.
# What was measured:
# RAR-α = target: T1, RAR-α (Homo sapiens, UniProt P10276); experiment: Dissociation constant for RAR-α receptors; type: binding
# T1 sequence (P10276 1-462): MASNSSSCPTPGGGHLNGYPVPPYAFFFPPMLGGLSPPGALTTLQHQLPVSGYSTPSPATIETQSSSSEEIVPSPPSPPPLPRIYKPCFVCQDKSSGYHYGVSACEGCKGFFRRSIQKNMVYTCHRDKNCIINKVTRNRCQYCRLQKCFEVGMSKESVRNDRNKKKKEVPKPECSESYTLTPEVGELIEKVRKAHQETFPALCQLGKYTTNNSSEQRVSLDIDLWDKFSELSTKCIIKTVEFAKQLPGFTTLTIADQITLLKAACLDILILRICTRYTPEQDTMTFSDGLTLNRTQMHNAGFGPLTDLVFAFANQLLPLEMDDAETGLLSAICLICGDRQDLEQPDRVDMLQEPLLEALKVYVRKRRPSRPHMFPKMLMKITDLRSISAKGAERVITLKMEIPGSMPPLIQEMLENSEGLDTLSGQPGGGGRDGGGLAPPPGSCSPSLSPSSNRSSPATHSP
# thymocytes [1] = experiment: Quantitative DNA fragmentation (apoptosis) in thymocytes, retinoid-induced (Example 1); type: cell-based, mouse (NMRI); conditions: for % of DNA fragments: 6 h
# Method: (§1) Thymus glands from untreated 4-week old NMRI male mice (sold by LATI, Godollo, Hungary) are used as the starting material for preparing thymocyte suspensions. The medium employed is Sigma RPMI 1640 medium which is supplemented with Gibco foetal calf serum, 2 mM glutamine, 100 IU of penicillin and 100 μg of streptomycin/ml. The thymocytes are then washed and diluted, in order to obtain a final concentration of 10^7 cells/ml, before incubating them at 37° C. in a humidified incubator under an atmosphere of 5% CO2 and 95% air. The death of the cells is measured by the uptake of trypan blue.
# (§2) The thymocytes are incubated in 24 wells together with various compounds to be tested. After 6 hours of incubation, 0.8 ml volumes of cell suspensions were lysed by the addition of 0.7 ml of lysis buffer containing 0.5% (v/v) Triton X-100, 10 mM Tris, 20 mM EDTA, pH 8.0, before being centrifuged at 13,000 g for 15 minutes.
# (§3) Quantitative analysis of the DNA: the DNA contained in the supernatant (the fragments) and the pellet (intact chromatin) was precipitated with an equivalent quantity of 10% trichloroacetic acid, resuspended in 5% trichloroacetic acid and then quantified using the diphenylamine reagent (Burton, K. (1956) Biochem. J., 62, 315-322).
# Qualitative analysis of the DNA: in parallel, the supernatant was precipitated overnight in ethanol containing […]. The pellets are redissolved in a buffer containing 10 mM Tris, 1 mM EDTA, pH 8.0, after which the solutions are treated with RNase and sequentially extracted with an equal volume of phenol and chloroform/isoamyl alcohol (24/1); the DNA is then precipitated in ethanol before electrophoresis for 3 hours at 60 V in a 1.8% agarose gel. The DNA fragments were then visualized by UV after the gel had been stained with ethidium bromide. The gels obtained display the picture of a ladder of DNA fragments which are multiples of from 180 to 200 base pairs and which are typical for an apoptosis induction. Throughout the experiments, the degree of fragmentation correlates with the number of cells which are dead and which are positive to the trypan blue test.
# (§4) The percentage of DNA fragment in this table corresponds to the difference between the percentage of DNA fragment obtained in the treated thymocytes and the percentage of DNA fragment obtained in the untreated thymocytes (basal rate of apoptosis for these thymocytes).
# thymocytes [2] = experiment: DNA fragmentation (apoptosis) in thymocytes induced by CD437 (Example 2); type: cell-based, mouse (NMRI); conditions: for % of DNA fragments: difference treated minus untreated
# Method: as §1, §2, §3
# The procedure is the same as in the preceding example, except that the nature of the ligands to be tested, and their concentration, are altered.
# as §4
# thymocytes [3] = experiment: DNA fragmentation (apoptosis) in thymocytes induced by activating a T-cell receptor with phorbol dibutyrate + Ca++ ionophore (Example 3); type: cell-based, mouse (NMRI); conditions: for % of DNA fragments: difference treated minus untreated
# thymus = type: in vivo, mouse (NMRI); conditions: for Weight of the thymus: 48 h, control 98.2 ± 19.6
# Method: 4-week-old male NMRI mice (sold by LATI, Godollo, Hungary) were used. […] For the control, male mice were treated by a single intraperitoneal injection of a mixture of 40 μl of DMSO and 0.5 ml of 20% ethanol. The CD2665 was also tested alone under the same conditions as before and in a quantity of 0.5 mg. The weight of the thymus was determined after 48 hours of treatment, and the results are assembled in Table 4 below.
# RAR-γ = target: T2, RAR-γ (Homo sapiens, UniProt P13631); experiment: Dissociation constant for RAR-γ receptors; type: binding
# T2 sequence (P13631 1-454): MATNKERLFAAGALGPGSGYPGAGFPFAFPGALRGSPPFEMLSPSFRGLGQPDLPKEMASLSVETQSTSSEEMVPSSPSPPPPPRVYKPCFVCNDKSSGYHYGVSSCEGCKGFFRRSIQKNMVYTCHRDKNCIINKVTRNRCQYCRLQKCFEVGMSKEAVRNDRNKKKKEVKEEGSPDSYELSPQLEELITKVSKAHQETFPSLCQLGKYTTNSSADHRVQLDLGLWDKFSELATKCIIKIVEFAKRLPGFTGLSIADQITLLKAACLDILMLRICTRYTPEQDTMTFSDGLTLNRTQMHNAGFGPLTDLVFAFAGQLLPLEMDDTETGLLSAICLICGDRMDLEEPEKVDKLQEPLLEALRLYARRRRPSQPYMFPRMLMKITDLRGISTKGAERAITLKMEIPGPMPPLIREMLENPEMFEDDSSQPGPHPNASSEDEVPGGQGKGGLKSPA
# [4] = 0.5 mg single intraperitoneal injection, alone
structure (smiles),measurement,setting,value
"CC1(C)CCC(C)(C)c2cc(C(=O)Nc3ccc(C(=O)O)c(O)c3)ccc21 [2-hydroxy-4-(5,5,8,8-tetramethyl-5,6,7,8-tetrahydronaphthalene-2-carboxamido)benzoic acid]",dissociation constant for RAR-α lower than dissociation constant for RAR-γ (fold),RAR-α; RAR-α versus RAR-γ,at least 20 times
"CC1=C(/C=C/C(C)=C\C=C\C(C)=C\C(=O)O)C(C)(C)CCC1 [9-cisRA, 9-cis-retinoic acid, reference compound]",% of DNA fragments,"thymocytes [1]; 9-cisRA 1000 nM, difference treated minus untreated thymocytes",19%
"CC1=C(/C=C/C(C)=C/C=C/C(C)=C/C(=O)O)C(C)(C)CCC1 [ATRA, all-trans retinoic acid, reference compound]",% of DNA fragments,"thymocytes [1]; ATRA 5000 nM, difference treated minus untreated thymocytes",17%
"CC1(C)CCC(C)(C)c2cc(C(=O)Nc3ccc(C(=O)O)cc3)ccc21 [CD336, 4-((5,6,7,8-tetrahydro-5,5,8,8-tetramethyl-2-naphthalenyl)carboxamido)benzoic acid]",% of DNA fragments,thymocytes [2]; CD336 alone 10^-6 M,0%
same,% of DNA fragments,thymocytes [2]; CD336 alone 10^-7 M,0%
same,% of DNA fragments,thymocytes [2]; CD336 alone 10^-8 M,0%
same,% of DNA fragments,thymocytes [2]; CD437 + CD336 10^-6 M,0%
same,% of DNA fragments,thymocytes [2]; CD437 + CD336 10^-7 M,5%
same,% of DNA fragments,thymocytes [2]; CD437 + CD336 10^-8 M,17%
same,inhibition of apoptosis induced by CD437,thymocytes [2]; conclusion from Table 2,inhibited in a dose-dependent manner
same,% of DNA fragments,thymocytes [3]; (P + C) + CD336 30 nM,9.6%
same,% of DNA fragments,thymocytes [3]; (P + C) + CD336 300 nM,8.4%
same,% of DNA fragments,thymocytes [3]; (P + C) + CD336 3000 nM,1.1%
same,% of DNA fragments,thymocytes [3]; CD336 alone 30 nM,0%
same,% of DNA fragments,thymocytes [3]; CD336 alone 300 nM,0%
same,% of DNA fragments,thymocytes [3]; CD336 alone 3000 nM,0%
same,inhibition of apoptosis induced by P+C,thymocytes [3]; conclusion from Table 3,inhibited in a dose-dependent manner
"O=C(O)c1ccc2cc(-c3ccc(O)c(C45CC6CC(CC(C6)C4)C5)c3)ccc2c1 [CD437, reference compound]",% of DNA fragments,"thymocytes [1]; CD437 300 nM, difference treated minus untreated thymocytes",24%
same,% of DNA fragments,thymocytes [2]; CD437 alone 0.3 × 10^-6 M,17%
same,Weight of the thymus,thymus; [4],31.3 ± 13.6 mg
same,involution of the thymus,"thymus; alone, conclusion from Table 4",involution of the thymus is observed
"COCCOCOc1cc2ccc(-c3ccc(C(=O)O)cc3)cc2cc1C12CC3CC(CC(C3)C1)C2 [CD2665, 4-[7-(1-adamantyl)-6-methoxyethoxymethoxy-2-naphthyl]benzoic acid]",% of DNA fragments,"thymocytes [1]; CD2665 200 nM + 9-cisRA 1000 nM, difference treated minus untreated",1.5%
same,% of DNA fragments,"thymocytes [1]; CD2665 200 nM + ATRA 5000 nM, difference treated minus untreated",0%
same,% of DNA fragments,"thymocytes [1]; CD2665 200 nM + CD437 300 nM, difference treated minus untreated",1.0%
same,% of DNA fragments,"thymocytes [1]; CD2665 200 nM alone, difference treated minus untreated thymocytes",0.5%
same,"inhibition of apoptosis induced by ATRA, 9-cisRA and CD437",thymocytes [1]; conclusion from Table 1,inhibited
same,Weight of the thymus,thymus; [4],107.6 ± 21.7 mg
same,Weight of the thymus,"thymus; CD2665 5 mg + CD437 0.5 mg, single intraperitoneal injection",63.3 ± 9.1 mg
same,involution of the thymus,"thymus; alone, conclusion from Table 4",no significant change is observed
same,involution of the thymus,"thymus; combination of CD2665 and CD437, compared with CD437 alone",involution of the thymus which is much less marked than that observed with CD437 alone
same,Kd,RAR-α,> 2.25 µM
same,Kd,RAR-γ,0.11 µM
same,dissociation constant for RAR-γ lower than dissociation constant for RAR-α (fold),RAR-γ; RAR-γ versus RAR-α,at least 20 times
